# Source: patent US10765114B2, “4-amino-6-(pyridyl and 2-substitutedphenyl)-picolinates and 6-amino-2-(pyridyl and 2-substitutedphenyl)-pyrimidine-4-carboxylates and their use as herbicides” (Dow AgroSciences LLC, priority 2013, dated 2020)
# Test system: Key Broadleaf Weed and Crop Species
# Experiment: Post-Emergent Test II (Table 5)
# Type: in vivo
# Conditions: Abutilon theophrasti, post-emergence, 336 h, ABUTH: velvetleaf (Abutilon theophrasti), application rate 70 (kg ai/ha; footnote: g ai/ha), read-out: Visual Growth Reduction (%) 14 Days After Application ABUTH
# Procedure, shortened: (§1)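 Post-emergence greenhouse spray, 1st-2nd true leaf stage; track sprayer, 187 L/ha; acetone/DMSO stock diluted in aqueous acetone/IPA/DMSO with Atplus 411F and Triton X-155; rates 1× to 1/16×; subirrigated; visual injury 0 (none) to 100% (complete kill) at 14 days.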
row,SMILES,pest or weed control at 70 g/ha
1,COC(=O)c1nc(-c2ccc(F)nc2)c(F)c(N)c1Cl [Compound 23],75 to 84%

# Same assay, conditions: Abutilon theophrasti, post-emergence, 336 h, ABUTH: velvetleaf (Abutilon theophrasti), application rate 140 (kg ai/ha; footnote: g ai/ha), read-out: Visual Growth Reduction (%) 14 Days After Application ABUTH
row,SMILES,pest or weed control at 140 g/ha
1,COC(=O)c1nc(-c2ccc(F)nc2)c(F)c(N)c1Cl [Compound 23],85 to 94%

# Same assay, conditions: Amaranthus retroflexus, post-emergence, 336 h, AMARE: redroot pigweed (Amaranthus retroflexus), application rate 70 (kg ai/ha; footnote: g ai/ha), read-out: Visual Growth Reduction (%) 14 Days After Application AMARE
row,SMILES,pest or weed control at 70 g/ha
1,COC(=O)c1nc(-c2ccc(F)nc2)c(F)c(N)c1Cl [Compound 23],95 to 100%

# Same assay, conditions: Amaranthus retroflexus, post-emergence, 336 h, AMARE: redroot pigweed (Amaranthus retroflexus), application rate 140 (kg ai/ha; footnote: g ai/ha), read-out: Visual Growth Reduction (%) 14 Days After Application AMARE
row,SMILES,pest or weed control at 140 g/ha
1,COC(=O)c1nc(-c2ccc(F)nc2)c(F)c(N)c1Cl [Compound 23],95 to 100%

# Same assay, conditions: Brassica napus, post-emergence, 336 h, BRSSS: oilseed rape, canola (Brassica napus), application rate 70 (kg ai/ha; footnote: g ai/ha), read-out: Visual Growth Reduction (%) 14 Days After Application BRSSS
row,SMILES,pest or weed control at 70 g/ha
1,COC(=O)c1nc(-c2ccc(F)nc2)c(F)c(N)c1Cl [Compound 23],45 to 59%

# Same assay, conditions: Brassica napus, post-emergence, 336 h, BRSSS: oilseed rape, canola (Brassica napus), application rate 140 (kg ai/ha; footnote: g ai/ha), read-out: Visual Growth Reduction (%) 14 Days After Application BRSSS
row,SMILES,pest or weed control at 140 g/ha
1,COC(=O)c1nc(-c2ccc(F)nc2)c(F)c(N)c1Cl [Compound 23],75 to 84%

# Same assay, conditions: Chenopodium album, post-emergence, 336 h, CHEAL: lambsquarters (Chenopodium album), application rate 70 (kg ai/ha; footnote: g ai/ha), read-out: Visual Growth Reduction (%) 14 Days After Application CHEAL
row,SMILES,pest or weed control at 70 g/ha
1,COC(=O)c1nc(-c2ccc(F)nc2)c(F)c(N)c1Cl [Compound 23],95 to 100%

# Same assay, conditions: Chenopodium album, post-emergence, 336 h, CHEAL: lambsquarters (Chenopodium album), application rate 140 (kg ai/ha; footnote: g ai/ha), read-out: Visual Growth Reduction (%) 14 Days After Application CHEAL
row,SMILES,pest or weed control at 140 g/ha
1,COC(=O)c1nc(-c2ccc(F)nc2)c(F)c(N)c1Cl [Compound 23],95 to 100%

# Same assay, conditions: Euphorbia heterophylla, post-emergence, 336 h, EPHHL: wild poinsettia (Euphorbia heterophylla), application rate 70 (kg ai/ha; footnote: g ai/ha), read-out: Visual Growth Reduction (%) 14 Days After Application EPHHL
row,SMILES,pest or weed control at 70 g/ha
1,COC(=O)c1nc(-c2ccc(F)nc2)c(F)c(N)c1Cl [Compound 23],75 to 84%

# Same assay, conditions: Euphorbia heterophylla, post-emergence, 336 h, EPHHL: wild poinsettia (Euphorbia heterophylla), application rate 140 (kg ai/ha; footnote: g ai/ha), read-out: Visual Growth Reduction (%) 14 Days After Application EPHHL
row,SMILES,pest or weed control at 140 g/ha
1,COC(=O)c1nc(-c2ccc(F)nc2)c(F)c(N)c1Cl [Compound 23],85 to 94%

# Same assay, conditions: Helianthus annuus, post-emergence, 336 h, HELAN: sunflower (Helianthus annuus), application rate 70 (kg ai/ha; footnote: g ai/ha), read-out: Visual Growth Reduction (%) 14 Days After Application HELAN
row,SMILES,pest or weed control at 70 g/ha
1,COC(=O)c1nc(-c2ccc(F)nc2)c(F)c(N)c1Cl [Compound 23],85 to 94%

# Same assay, conditions: Helianthus annuus, post-emergence, 336 h, HELAN: sunflower (Helianthus annuus), application rate 140 (kg ai/ha; footnote: g ai/ha), read-out: Visual Growth Reduction (%) 14 Days After Application HELAN
row,SMILES,pest or weed control at 140 g/ha
1,COC(=O)c1nc(-c2ccc(F)nc2)c(F)c(N)c1Cl [Compound 23],85 to 94%

# Same assay, conditions: Viola tricolor, post-emergence, 336 h, VIOTR: wild pansy (Viola tricolor), application rate 70 (kg ai/ha; footnote: g ai/ha), read-out: Visual Growth Reduction (%) 14 Days After Application VIOTR
row,SMILES,pest or weed control at 70 g/ha
1,COC(=O)c1nc(-c2ccc(F)nc2)c(F)c(N)c1Cl [Compound 23],30 to 44%

# Same assay, conditions: Viola tricolor, post-emergence, 336 h, VIOTR: wild pansy (Viola tricolor), application rate 140 (kg ai/ha; footnote: g ai/ha), read-out: Visual Growth Reduction (%) 14 Days After Application VIOTR
row,SMILES,pest or weed control at 140 g/ha
1,COC(=O)c1nc(-c2ccc(F)nc2)c(F)c(N)c1Cl [Compound 23],45 to 59%

# Test system: Key Grass and Sedge Weeds as well as Grass Crops
# Experiment: Post-Emergent Test II (Table 6)
# Type: in vivo
# Conditions: post-emergence, 336 h, CYPSS, 70 g ai/ha, 14 days after application, read-out: Visual Growth Reduction (%) 14 Days After Application CYPSS
# Procedure, shortened: as §1
row,SMILES,pest or weed control at 70 g/ha
1,COC(=O)c1nc(-c2ccc(F)nc2)c(F)c(N)c1Cl [Compound 23],0 to 29%

# Same assay, conditions: post-emergence, 336 h, CYPSS, 140 g ai/ha, 14 days after application, read-out: Visual Growth Reduction (%) 14 Days After Application CYPSS
row,SMILES,pest or weed control at 140 g/ha
1,COC(=O)c1nc(-c2ccc(F)nc2)c(F)c(N)c1Cl [Compound 23],0 to 29%

# Same assay, conditions: post-emergence, 336 h, DIGSA: crabgrass (Digitaria sanguinalis), 70 g ai/ha, 14 days after application, read-out: Visual Growth Reduction (%) 14 Days After Application DIGSA
row,SMILES,pest or weed control at 70 g/ha
1,COC(=O)c1nc(-c2ccc(F)nc2)c(F)c(N)c1Cl [Compound 23],30 to 44%

# Same assay, conditions: post-emergence, 336 h, DIGSA: crabgrass (Digitaria sanguinalis), 140 g ai/ha, 14 days after application, read-out: Visual Growth Reduction (%) 14 Days After Application DIGSA
row,SMILES,pest or weed control at 140 g/ha
1,COC(=O)c1nc(-c2ccc(F)nc2)c(F)c(N)c1Cl [Compound 23],45 to 59%

# Same assay, conditions: post-emergence, 336 h, ECHSS, 70 g ai/ha, 14 days after application, read-out: Visual Growth Reduction (%) 14 Days After Application ECHSS
row,SMILES,pest or weed control at 70 g/ha
1,COC(=O)c1nc(-c2ccc(F)nc2)c(F)c(N)c1Cl [Compound 23],60 to 74%

# Same assay, conditions: post-emergence, 336 h, ECHSS, 140 g ai/ha, 14 days after application, read-out: Visual Growth Reduction (%) 14 Days After Application ECHSS
row,SMILES,pest or weed control at 140 g/ha
1,COC(=O)c1nc(-c2ccc(F)nc2)c(F)c(N)c1Cl [Compound 23],75 to 84%

# Same assay, conditions: post-emergence, 336 h, ORYSS (crop), 70 g ai/ha, 14 days after application, read-out: Visual Growth Reduction (%) 14 Days After Application ORYSS
row,SMILES,pest or weed control at 70 g/ha
1,COC(=O)c1nc(-c2ccc(F)nc2)c(F)c(N)c1Cl [Compound 23],0 to 29%

# Same assay, conditions: post-emergence, 336 h, ORYSS (crop), 140 g ai/ha, 14 days after application, read-out: Visual Growth Reduction (%) 14 Days After Application ORYSS
row,SMILES,pest or weed control at 140 g/ha
1,COC(=O)c1nc(-c2ccc(F)nc2)c(F)c(N)c1Cl [Compound 23],0 to 29%

# Same assay, conditions: post-emergence, 336 h, SORVU: grain sorghum (Sorghum vulgare), 70 g ai/ha, 14 days after application, read-out: Visual Growth Reduction (%) 14 Days After Application SORVU
row,SMILES,pest or weed control at 70 g/ha
1,COC(=O)c1nc(-c2ccc(F)nc2)c(F)c(N)c1Cl [Compound 23],0 to 29%

# Same assay, conditions: post-emergence, 336 h, SORVU: grain sorghum (Sorghum vulgare), 140 g ai/ha, 14 days after application, read-out: Visual Growth Reduction (%) 14 Days After Application SORVU
row,SMILES,pest or weed control at 140 g/ha
1,COC(=O)c1nc(-c2ccc(F)nc2)c(F)c(N)c1Cl [Compound 23],0 to 29%

# Same assay, conditions: post-emergence, 336 h, TRZSS (crop), 70 g ai/ha, 14 days after application, read-out: Visual Growth Reduction (%) 14 Days After Application TRZSS
row,SMILES,pest or weed control at 70 g/ha
1,COC(=O)c1nc(-c2ccc(F)nc2)c(F)c(N)c1Cl [Compound 23],0 to 29%

# Same assay, conditions: post-emergence, 336 h, TRZSS (crop), 140 g ai/ha, 14 days after application, read-out: Visual Growth Reduction (%) 14 Days After Application TRZSS
row,SMILES,pest or weed control at 140 g/ha
1,COC(=O)c1nc(-c2ccc(F)nc2)c(F)c(N)c1Cl [Compound 23],0 to 29%

# Same assay, conditions: post-emergence, 336 h, ZEAMX: maize, corn (Zea mays), 70 g ai/ha, 14 days after application, read-out: Visual Growth Reduction (%) 14 Days After Application ZEAMX
row,SMILES,pest or weed control at 70 g/ha
1,COC(=O)c1nc(-c2ccc(F)nc2)c(F)c(N)c1Cl [Compound 23],0 to 29%

# Same assay, conditions: post-emergence, 336 h, ZEAMX: maize, corn (Zea mays), 140 g ai/ha, 14 days after application, read-out: Visual Growth Reduction (%) 14 Days After Application ZEAMX
row,SMILES,pest or weed control at 140 g/ha
1,COC(=O)c1nc(-c2ccc(F)nc2)c(F)c(N)c1Cl [Compound 23],45 to 59%

# Test system: not given
# Experiment: not given
# Conditions: not given
row,melting point,SMILES
1,167 to 168 °C,COC(=O)c1nc(-c2ccc(F)nc2)c(F)c(N)c1Cl [Compound 23]
